From US20220008500A1, “COMPOSITIONS AND METHODS FOR TREATING HEART FAILURE” (The George Washington University, priority 2017, published 2022) come the findings set out here.

For assay [1], the system named is IL-1β. Put plainly: Western blot of LV myocardium, IL-1β. As to conditions: CNO 1 mg/kg IP daily. The assay is classed as in vivo, Sprague-Dawley rats. The method, then:
(§1) TAC+OXT and OXT NORM animals received intraperitoneal (IP) injections of CNO (1 mg/kg) daily, beginning at 5 weeks of age until the animal was sacrificed.
Samples of LV myocardium (n=5-6/group) were flash frozen in liquid nitrogen and stored at −80° C. For western blot analysis of protein expression, samples were thawed and homogenized using the Qproteome Mammalian Protein Prep Kit (Qiagen) in tubes containing metallic beads. Samples were then centrifuged at 14,000 g for 20 minutes and protein concentrations were determined by the Pierce BCA Protein Assay (Thermo Scientific). Laemmli buffer (Bio Rad) with 10% 2-mercaptoethanol (Sigma-Aldrich) was added to the samples and samples were heated to 98° C. Equal protein concentration was loaded into wells containing 4-20% Mini-PROTEAN® TGX™ Gels (Bio Rad). The samples were then run at 100V for 1-1.5 hours to separate proteins by electrophoresis.
After electrophoresis, the samples were transferred to PVDF membranes for 10 min at 25V using the Trans-Blot® Turbo™ Transfer System (Bio Rad). The membranes were blocked with 5% milk for 18 hours. […] Band intensities for collagen III and IL-10 were measured using ImageJ and normalized to the corresponding band intensity for GAPDH.

Assay [2] addresses DREADDs in PVN OXT neurons (Homo sapiens, UniProt P20309, A239G/Y149C). Put plainly: Anatomic measurements and histology of hearts after chronic activation of PVN OXT neurons. It counts as in vivo, Sprague-Dawley rats. The arrangement: expressed in transfected cells; host or cells: PVN oxytocin neurons of Sprague-Dawley rats, transduced in vivo with a Cre-dependent (double-floxed inverse ORF) viral vector plus an OXT-promoter Cre vector.
Description: Pressure overload induced LV hypertrophy was initiated in male Sprague-Dawley rats using a minimally invasive trans-ascending aortic constriction (TAC) procedure. Rats at one week of age were aestheticized by hypothermia and underwent TAC surgery. A 0.5 cm incision was made at the level of the chest, the chest was opened and the thymus was retracted to reveal the aorta. A 4-0 silk suture was passed around the ascending aorta, and with a 25-gauge needle temporarily placed adjacent to the aorta, the suture was tied around both the aorta and needle (TAC and TAC+OXT groups). The needle was then removed, leaving the constricting suture around the aorta. Buprenorphine was applied as an analgesic. Successful constriction was confirmed upon examination of the aorta after each animal was sacrificed.
Additionally, selective activation of DREADDs in PVN OXT neurons decreases both mean arterial pressure and HR in telemetry instrumented conscious unrestrained animals. […] In this system one viral vector expresses Cre recombinase under an OXT promotor. The second vector expresses the excitatory hM3Dq DREADDs22. This is a Cre-dependent vector that has silencing double-floxed inverse open reading frames, which insures expression is only in OXT neurons that selectively express Cre. In each animal, 30-50 nl containing both viral vectors was selectively microinjected into the PVN over a 20 minutes period at 1 week of age.
as §1
In a subset of animals, hearts were excised and cannulated via the aorta, flushed of blood, and weighed after clearing fluid from the chambers. The hearts were cut transversely, halfway between the apex and base, and the thickness of the LV free wall and septum were measured. The tissue was then preserved in 10% formalin for histology. Other hearts from each group were cannulated, flushed with high potassium solution, and then formalin-fixed via retrograde perfusion at constant pressure (60 mmHg). The hearts were cut longitudinally and preserved in 10% formalin for histology. All heart specimens were stained (H&E and Trichrome) to quantify cell size and collagen deposition. Average myocyte transverse cross-sectional (CS) area (μm^2) and the amount of fibrosis (μm^2) observed in a histological section were measured using ImageJ for at least three transverse slices from each heart.

Setting [3] is: TAC rats with DREADDs, CNO 1 mg/kg IP daily, 8 weeks post-TAC, listed as TAC + OXT.
[4] abbreviates: TAC rats with DREADDs, CNO 1 mg/kg IP daily, 8 weeks post-TAC, listed as TAC+OXT.
Setting [5] is: rats without TAC (OXT NORM), CNO 1 mg/kg IP daily.

Several values for one entry are separate records, joined by “and”; a condition that tells them apart may be missing. Equal values may be shown once.

Sequence of DREADDs in PVN OXT neurons (P20309 whole entry Y149C/A239G): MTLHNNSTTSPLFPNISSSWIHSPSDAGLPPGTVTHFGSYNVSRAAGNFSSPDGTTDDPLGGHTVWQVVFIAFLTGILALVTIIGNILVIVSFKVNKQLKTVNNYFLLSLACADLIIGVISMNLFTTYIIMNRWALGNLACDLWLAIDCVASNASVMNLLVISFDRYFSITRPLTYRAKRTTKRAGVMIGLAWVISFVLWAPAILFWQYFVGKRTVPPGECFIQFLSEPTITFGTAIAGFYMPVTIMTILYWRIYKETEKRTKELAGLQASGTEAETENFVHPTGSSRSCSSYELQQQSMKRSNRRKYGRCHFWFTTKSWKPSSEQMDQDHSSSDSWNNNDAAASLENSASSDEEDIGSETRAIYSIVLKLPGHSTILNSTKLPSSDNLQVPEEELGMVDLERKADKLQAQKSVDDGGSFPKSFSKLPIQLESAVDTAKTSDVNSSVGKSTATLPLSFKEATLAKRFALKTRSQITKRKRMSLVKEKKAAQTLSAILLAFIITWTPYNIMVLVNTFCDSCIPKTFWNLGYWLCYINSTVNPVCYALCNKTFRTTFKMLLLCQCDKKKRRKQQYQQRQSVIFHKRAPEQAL

With `C[N+]1([O-])CCN(C2=Nc3cc(Cl)ccc3Nc3ccccc32)CC1` [CNO, clozapine N-oxide], the entries for the “IL-1β expression (band intensity normalized to GAPDH)” value in assay [1] (TAC rats with DREADDs) and in assay [1] (rats without TAC (OXT NORM)) were 0.50±0.2 change from Control and 0.21±0.14 change from Control, respectively. Further, the “Myocyte area (transverse cross-sectional area)” value in assay [2] (TAC rats with DREADDs, CNO 1 mg/kg IP daily from 5 weeks of age, 8 weeks post-TAC, listed as TAC + OXT) is 584 ± 51^+ μm^2; in assay [2] (TAC rats with DREADDs, CNO 1 mg/kg IP daily from 5 weeks of age, 8 weeks post-TAC, listed as TAC+OXT) it was 601±23 μm^2; in assay [2] (rats without TAC (OXT NORM) with DREADDs, CNO 1 mg/kg IP daily), 368±20 μm^2 and 365 ± 90 μm^2. Also, the Body weight in assay [2] (TAC rats with DREADDs, CNO 1 mg/kg IP daily, 8 weeks post-TAC) is listed as 298 ± 17^ g; in assay [2] (setting [5]), 357 ± 24 g. In addition, the Fibrosis is 2407 ± 723^+ μm^2 in assay [2] (setting [3]), 2407±723 μm^2 in assay [2] (setting [4]) and 918±112 μm^2 in assay [2] (setting [5]). In addition, the Heart weight in assay [2] (setting [3]) was 1.75 ± 0.21 g; in assay [2] (setting [4]), 1.74 ± 0.2 g; in assay [2] (setting [5]), 2.19 ± 0.2 g and 2.19 ± 0.17 g. Moreover, the “LV wall thickness (LV free wall)” value was 5.53 ± 0.34 mm in assay [2] (setting [3]); 5.22±0.3 mm in assay [2] (setting [4]); 3.69±0.1 mm and 3.69 ± 0.10 mm in assay [2] (setting [5]). Further, the Septum thickness was 3.99 ± 0.14 mm in assay [2] (setting [3]); 3.9±0.2 mm in assay [2] (setting [4]); 3.18±0.1 mm and 3.18 ± 0.12 mm in assay [2] (setting [5]).
